Test results published in ChEMBL document CHEMBL3639062, “Triazolopyridazines as PAR1 inhibitors, production thereof, and use as medicaments” (2015).

Biological target: T1, Proteinase-activated receptor 1 (Homo sapiens, UniProt P25116)
T1 sequence (P25116 whole entry): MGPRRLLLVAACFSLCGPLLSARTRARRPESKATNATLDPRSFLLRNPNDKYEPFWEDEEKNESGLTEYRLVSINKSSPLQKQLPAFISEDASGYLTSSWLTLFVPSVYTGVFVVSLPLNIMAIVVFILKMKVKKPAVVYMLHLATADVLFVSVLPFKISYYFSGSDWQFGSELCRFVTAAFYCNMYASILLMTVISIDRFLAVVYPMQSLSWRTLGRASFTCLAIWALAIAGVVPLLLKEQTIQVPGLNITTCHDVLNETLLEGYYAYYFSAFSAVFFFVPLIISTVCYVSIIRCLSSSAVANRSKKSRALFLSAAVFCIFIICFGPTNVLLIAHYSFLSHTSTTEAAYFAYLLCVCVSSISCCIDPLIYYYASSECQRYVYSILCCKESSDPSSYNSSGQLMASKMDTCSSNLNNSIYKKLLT
Assay: Binding Assay: The synthesized substances were examined in a PAR1 binding test. This tested whether the substances can inhibit the binding of a radioactively labeled PAR1 agonist known from the literature at the PAR1 receptor (Ho-Sam Ahn, Mol Pharm, 51:350-356, 1997). The human PAR1 receptor was expressed transiently in High Five insect cells. From these cells, after 48 hours, a membrane preparation was produced by standard methods, aliquoted into 10 mM Tris-HCl; 0.3 mM EDTA; 1 mM EGTA; 250 mM sucrose pH 7.5, and stored at -80 C.The substances were preincubated with the membrane at room temperature for 15 minutes, then the radioligand (ALA-(para-F-Phe)-Arg-ChA-homoArg-(3,4-3H-Tyr)-NH2; approx. 40 Ci/mMol) was added. The end concentration of the radioligand in the test buffer (50 mM Tris-HCl; 10 mM MgCl2; 1 mM EGTA; 0.1% BSA; 2% DMSO) was 20 nM, that of the membrane 1 mg/ml. After an incubation time of 60 minutes, 25 uL of the mixture were transferred to a 96-well MultiScreenHTS FB.

CCC(CC)Oc1nn2c(=N)n(CC(=O)c3cc(OC)cc(C(C)(C)C)c3)nc2cc1C
IC50: 951 nM
